Earlier results, collected in patent publication US20240277751A1, “CRYSTALLINE POLYMORPHIC FORMS OF STING AGONISTS ASSOCIATED WITH METAL IONS CAPABLE OF MODULATING AN IMMUNE RESPONSE” (priority 2020, published 2024).

**Q.** Which “fraction entered the systemic circulation” value (1 hour after intratumor injection, phase I clinical trial) does the source give for `Nc1ncnc2c1ncn2[C@@H]1O[C@@H]2COP(=O)([S-])O[C@@H]3[C@H](O)[C@@H](COP([O-])(=S)O[C@H]2[C@H]1O)O[C@H]3n1cnc2c(N)ncnc21.[Na+].[Na+]` (some centres unmarked) [MIW815] here?
**A.** The value was “over 98%”.

**Q.** And the half-life in serum (in vivo)?
**A.** Its half-life in serum is roughly 16 min.
